The record followed here is patent US10889591B2, “PDE9 inhibitor and use thereof” (Nanjing TransThera Biosciences Co. Ltd., priority 2017, dated 2021).

Where two headings read alike, the source gives them in different places.

Data set [1] can be described thus: Stability in human liver microsome. The following applies: for CLint / k / Original drug residual % at 60 min / T1/2 (min): human liver microsome 0.5 mg protein/mL, compound 1 μM; for k: slope of log remaining amount versus time; for Original drug residual % at 60 min: β-NADPH 1 mM, 37° C.; for half-life at 1 μM: human, liver microsomes.
The nature of another data set: in vitro. As to conditions: human, microsomes.
The conditions of data set [2]: human.
Data set [3] is described as follows: Canine pharmacokinetic evaluation. It is filed as in vivo. The following applies: Beagle dogs; for Vz_obs iv (apparent distribution volume) / AUC(0-inf) / half-life / bioavailability / clearance: n = 3; for Tmax / AUC(0-inf) / half-life / bioavailability / clearance: dog, plasma; for Tmax: n = 3, median; for clearance: read-out: Cl_obs iv (clearance rate) (converted). The text has this:
1. Animal Administration and Sample Collection
2. Sample Analysis Method
3. Data Processing Method

Data set [4] in a line: Rat pharmacokinetic evaluation. It is filed as in vivo, SD male rats. The following applies: SD rat, intravenous bolus 1 mg/kg; for AUC(0-t) / clearance / half-life: male, Sprague-Dawley, plasma; for AUC(0-t): read-out: AUClast iv; for clearance: read-out: Cl_obs iv (clearance rate) (converted); for half-life: read-out: tz1/2 iv (terminal elimination half-life) (converted).
Data set [5] can be described thus: Rat pharmacokinetic evaluation. The data set is classed as in vivo, SD male rats. As to conditions: male, Sprague-Dawley, plasma, SD rat; for Tmax / AUC(0-t) / half-life: po, intragastric 5 mg/kg; for Tmax: median; for AUC(0-t): read-out: AUClast po; for half-life: read-out: tz1/2 po (terminal elimination half-life) (converted); for bioavailability: dose iv/po 1/5 mg/kg, read-out: F % (absolute bioavailability). How it is done:
Experimental Example 4: Rat Pharmacokinetic Evaluation of the Compounds of the Invention
Aim: The in vivo pharmacokinetic parameters of the compounds in SD male rats (purchased from Beijing Vital River Animal Technology Co., Ltd.) were evaluated and bioavailability of the compounds was examined.
Animal Administration and Sample Collection:
The solution of compounds 65, 90, 107, 158 was intragastrically administered to SD rat at a dose of 5.0 mg/kg.
The experimental compound 76 was dissolved in 30% DMF+30% PEG400+40% saline to prepare a solution. The solution of compound 76 was intragastrically administered to SD rat at a dose of 5.0 mg/kg.
The experimental compound 76 was dissolved in 30% DMF+30% PEG400+40% saline to prepare a solution.
The experimental compounds 84 and 96 were dissolved in 5% DMSO+10% PEG400+85% (28% HP-β-CD) saline to prepare a solution. The solution of compounds 84 and 96 was intragastrically administered to SD rat at a dose of 5.0 mg/kg.
The experimental compounds 84 and 96 were dissolved in 5% DMSO+10% PEG400+85% (28% HP-β-CD) saline to prepare a solution.
The animals were fixed. The tail was heated with a water bath at 10 min before each time point. About 100 μL of blood from tail vein was collected, and then placed in an anti-coagulation tube containing EDTA-K2 after collection. Blood samples were centrifuged at 8000 rpm at 4° C. for 6 min to obtain plasma samples.
The concentration of test sample was output using Analyst 1.6.1 from AB SCIEX.

Setting [6] is: intravenous bolus 1 mg/kg, read-out: AUCinf iv.
Setting [7] is: intravenous bolus 1 mg/kg, read-out: tz1/2 iv (terminal elimination half-life) (converted).

Consider `N#Cc1c(Nc2ccc(Cl)cc2)c2ccncc2[nH]c1=O` [Compound 18, 4-((4-chlorophenyl)amino)-2-oxo-1,2-dihydro-1,7-naphthyridin-3-carbonitrile], for which, in data set [1], the CLint was 0.1244 mL · min^−1 · mg^−1 proteins, the “k” value came out at 0.727 min⁻¹, the “Original drug residual % at 60 min” value turned out to be 5.19% and the half-life at 1 μM was 0.186 h.

`N#Cc1c(N2CC[C@@H](n3cccn3)C2)c2ccncc2[nH]c1=O` [Compound 19, (R)-4-(3-(1H-pyrazol-1-yl)pyrrolidin-1-yl)-2-oxo-1,2-dihydro-1,7-naphthyridin-3-carbonitrile]: in data set [1], the CLint is recorded as 0.0012 mL · min^−1 · mg^−1 proteins, the “k” value is 0.191 min⁻¹, the “Original drug residual % at 60 min” value was determined as 93.4% and the half-life at 1 μM is 19.2 h.

Consider `N#Cc1c(N2CCC3(CC2)CC3)c2cc(C(O)CO)ncc2[nH]c1=O` (stereo not drawn) [Compound 32, 6-(1,2-dihydroxyethyl)-2-oxo-4-(6-azaspiro[2.5]octane-6-yl)-1,2-dihydro-1,7-naphthyridin-3-carbonitrile], for which, in data set [1], the “T1/2 (min)” value is “→∞”, the “k” value was -0.3760 min⁻¹ and the “Original drug residual % at 60 min” value turned out to be 99.8%.

The compound `N#Cc1c(N2CCC3(CCC3)CC2)c2cc(N3CC(O)C3)ncc2[nH]c1=O` [Compound 51, 6-(3-hydroxyazetidin-1-yl)-2-oxo-4-(7-azaspiro[3.5]nonane-7-yl)-1,2-dihydro-1,7-naphthyridin-3-carbonitrile] returned a half-life in the data set “in vitro” of 2.1 h. Further, in data set [2], the “Original drug residual % at 60 min” value came to 74.1% and the “k” value was determined as 0.9418 min⁻¹. In addition, the CLint in data set [2] (microsomes) is on record as 0.0110 mL · min^−1 · mg^−1 proteins.

Regarding `Cc1cc2c(N3CCC4(CCC4)CC3)c(C#N)c(=O)[nH]c2cn1` [Compound 65, 6-methyl-2-oxo-4-(7-azaspiro[3.5]nonane-7-yl)-1,2-dihydro-1,7-naphthyridin-3-carbonitrile], the results for the “Vz_obs iv (apparent distribution volume)” value in data set [3] (intravenous bolus 1 mg/kg) and in data set [4] were 0.66 L/kg and 1.75 L/kg, respectively. For the same compound, the Tmax in data set [3] (po, intragastric 2 mg/kg) is 0.5 h; in data set [5] it was 0.5 h. Besides, the AUC(0-inf) in data set [3] (po, intragastric 2 mg/kg, read-out: AUCinf po) amounted to 543 ng·h/mL; in data set [3] (setting [6]), 1060 ng·h/mL. In addition, the half-life in data set [3] (po, intragastric 2 mg/kg, read-out: tz1/2 po (terminal elimination half-life) (converted)) is 0.47 h; in data set [3] (setting [7]), 0.49 h; in data set [4], 1.47 h; in data set [5], 2.25 h. Also, the bioavailability in data set [3] (dose iv/po 1/2 mg/kg) turned out to be 25.5%; in data set [5], 51.8%. In addition, the clearance in data set [3] (intravenous bolus 1 mg/kg) was 15.7 mL/min/kg; in data set [4] it was 13.8 mL/min/kg. Also, the values for the AUC(0-t) in data set [4] and in data set [5] were 1240 ng·h/mL and 3000 ng·h/mL, respectively.

For `COc1cc2c(N3CCC4(CCC4)CC3)c(C#N)c(=O)[nH]c2cn1` [Compound 66, 6-methoxy-2-oxo-4-(7-azaspiro[3.5]nonane-7-yl)-1,2-dihydro-1,7-naphthyridin-3-carbonitrile], in data set [1], the “k” value is -0.515 min⁻¹ and the “Original drug residual % at 60 min” value worked out at 101%.

As to `COC1(C)CCN(c2c(C#N)c(=O)[nH]c3cnccc23)CC1` [Compound 81, 4-(4-methoxy-4-methylpiperidin-1-yl)-2-oxo-1,2-dihydro-1,7-naphthyridin-3-carbonitrile], in data set [1], the CLint is 0.0024 mL · min^−1 · mg^−1 proteins, the “k” value is 0.0012 min⁻¹, the “Original drug residual % at 60 min” value was found to be 94.6% and the half-life at 1 μM turned out to be 9.63 h.

`N#Cc1c(N2CCC3(CC2)CC3)c2cc(C(=O)O)ncc2[nH]c1=O` [Compound 83, 3-cyano-2-oxo-4-(6-azaspiro[2.5]octane-6-yl)-1,2-dihydro-1,7-naphthyridin-6-carboxylic acid]: in data set [1], the “T1/2 (min)” value was “→∞”, the “k” value was found to be 0.5421 min⁻¹ and the “Original drug residual % at 60 min” value worked out at 104.1%.

Take `CC(C)(O)c1cc2c(N3CCC4(CC3)CC4)c(C#N)c(=O)[nH]c2cn1` [Compound 84, 6-(2-hydroxypropan-2-yl)-2-oxo-4-(6-azaspiro[2.5]octane-6-yl)-1,2-dihydro-1,7-naphthyridin-3-carbonitrile]: in data set [4], the “Vz_obs iv (apparent distribution volume)” value is 1.16 L/kg, the AUC(0-t) was found to be 2430 ng·h/mL, the clearance was 8.17 mL/min/kg and the half-life is 1.89 h. In addition, in data set [5], the time of peak concentration (Tmax) came to 1 h, the AUC(0-t) turned out to be 7580 ng·h/mL, the half-life was 3.24 h and the bioavailability is 62.5%.

Take `CNC(=O)c1cc2c(N3CCC4(CC3)CC4)c(C#N)c(=O)[nH]c2cn1` [Compound 96, 3-cyano-N-methyl-2-oxo-4-(6-azaspiro[2.5]octane-6-yl)-1,2-dihydro-1,7-naphthyridin-6-formamide]: in data set [4], the “Vz_obs iv (apparent distribution volume)” value was found to be 0.57 L/kg, the AUC(0-t) came out at 769 ng·h/mL, the clearance is 22 mL/min/kg and the half-life is 0.3 h.

As to `CCc1cc2c(N3CCC(C)(OC)CC3)c(C#N)c(=O)[nH]c2cn1` [Compound 107, 6-ethyl-4-(4-methoxy-4-methylpiperidin-1-yl)-2-oxo-1,2-dihydro-1,7-naphthyridin-3-carbonitrile], in data set [3] (intravenous bolus 1 mg/kg), the “Vz_obs iv (apparent distribution volume)” value worked out at 2.05 L/kg and the clearance is 16 mL/min/kg. In data set [3] (po, intragastric 1 mg/kg), the time to peak (Tmax) was determined as 0.5 h. The AUC(0-inf) in data set [3] (po, intragastric 1 mg/kg, read-out: AUCinf po) was found to be 757 ng·h/mL. In data set [3] (po, intragastric 1 mg/kg, read-out: tz1/2 po (terminal elimination half-life) (converted)), the half-life is 2.56 h. In data set [3] (dose iv/po 1/1 mg/kg), this compound displayed a bioavailability of 61.5%. For the same compound, the AUC(0-inf) in data set [3] (setting [6]) was 1230 ng·h/mL. For the same compound, the half-life in data set [3] (setting [7]) is 1.64 h. In data set [1], the CLint is 0.0046 mL · min^−1 · mg^−1 proteins, the “k” value turned out to be 0.0023 min⁻¹, the “Original drug residual % at 60 min” value stood at 88.5% and the half-life at 1 μM stood at 5.02 h. In data set [4], the “Vz_obs iv (apparent distribution volume)” value stood at 2.13 L/kg, the AUC(0-t) came to 748 ng·h/mL, the clearance was 24.2 mL/min/kg and the half-life was 1.25 h. Moreover, in data set [5], the time to peak (Tmax) was found to be 0.5 h, the AUC(0-t) amounted to 1940 ng·h/mL, the half-life was 2.68 h and the bioavailability came out at 56.8%.

As to `COC1(C)CCN(c2c(C#N)c(=O)[nH]c3cnc(C(C)(C)O)cc23)CC1` [Compound 109, 6-(2-hydroxypropan-2-yl)-4-(4-methoxy-4-methylpiperidin-1-yl)-2-oxo-1,2-dihydro-1,7-naphthyridine-3-carbonitrile], in data set [1], the CLint is 0.0020 mL · min^−1 · mg^−1 proteins, the “k” value is 0.4444 min⁻¹, the “Original drug residual % at 60 min” value came to 91.9% and the half-life at 1 μM worked out at 11.6 h.

Regarding `COCCOc1cc2c(N3CCC(C)(OC)CC3)c(C#N)c(=O)[nH]c2cn1` [Compound 145, 4-(4-methoxy-4-methylpiperidin-1-yl)-6-(2-methoxyethoxy)-2-oxo-1,2-dihydro-1,7-naphthyridin-3-carbonitrile], in data set [1], the CLint is recorded as 0.0038 mL · min^−1 · mg^−1 proteins, the “k” value came to 0.0019 min⁻¹, the “Original drug residual % at 60 min” value is 88.2% and the half-life at 1 μM was 6.08 h.

Take `COC1(C)CCN(c2c(C#N)c(=O)[nH]c3cnc(C)cc23)CC1` [Compound 158, 4-(4-methoxy-4-methylpiperidin-1-yl)-6-methyl-2-oxo-1,2-dihydro-1,7-naphthyridin-3-carbonitrile]: in data set [1], the CLint is on record as 0.0026 mL · min^−1 · mg^−1 proteins, the “k” value is 0.0013 min⁻¹, the “Original drug residual % at 60 min” value is given as 92.6% and the half-life at 1 μM came to 8.88 h.
